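Five concentrations, 48 hours, 96-well plates. TGI denotes the concentration required for complete inhibition of growth.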
How the values were obtained:
Test in all cases: DTP human tumour cell line panel, 48 h
U251 CNS = system: U251 CNS
HS 578T breast = system: HS 578T breast
786-0 renal = system: 786-0 renal
HT29 colon = system: HT29 colon
OVCAR-4 ovarian = system: OVCAR-4 ovarian
SF-295 CNS = system: SF-295 CNS
IGROV1 ovarian = system: IGROV1 ovarian
EKVX NSCLC = system: EKVX NSCLC
HCC-2998 colon = system: HCC-2998 colon
MCF7 breast = system: MCF7 breast
HOP-92 NSCLC = system: HOP-92 NSCLC
MDA-MB-435 = system: MDA-MB-435
HCT-116 colon = system: HCT-116 colon
SK-OV-3 ovarian = system: SK-OV-3 ovarian
NCI-H522 lung = system: NCI-H522 lung
NCI-H226 lung = system: NCI-H226 lung
SR leukemia = system: SR leukemia
A549 NSCLC = system: A549 NSCLC
UACC-62 melanoma = system: UACC-62 melanoma
SK-MEL-28 melanoma = system: SK-MEL-28 melanoma
RPMI-8226 leukemia = system: RPMI-8226 leukemia
OVCAR-3 ovarian = system: OVCAR-3 ovarian
SNB-75 CNS = system: SNB-75 CNS
ACHN renal = system: ACHN renal
SF-268 CNS = system: SF-268 CNS
MALME-3M melanoma = system: MALME-3M melanoma
BT-549 breast = system: BT-549 breast
MOLT-4 leukemia = system: MOLT-4 leukemia
SNB-19 CNS = system: SNB-19 CNS
SF-539 CNS = system: SF-539 CNS
DU-145 prostate = system: DU-145 prostate
OVCAR-8 ovarian = system: OVCAR-8 ovarian
SN12C renal = system: SN12C renal
UO-31 renal = system: UO-31 renal
MDA-N = system: MDA-N
T-47D breast = system: T-47D breast
NCI-H460 lung = system: NCI-H460 lung
PC-3 prostate = system: PC-3 prostate
NCI-H23 lung = system: NCI-H23 lung
HL-60(TB) leukemia = system: HL-60(TB) leukemia
KM12 colon = system: KM12 colon
SK-MEL-2 melanoma = system: SK-MEL-2 melanoma
A498 renal = system: A498 renal
SK-MEL-5 melanoma = system: SK-MEL-5 melanoma
SW-620 colon = system: SW-620 colon
OVCAR-5 ovarian = system: OVCAR-5 ovarian
M14 melanoma = system: M14 melanoma
NCI/ADR-RES ovarian = system: NCI/ADR-RES ovarian
UACC-257 melanoma = system: UACC-257 melanoma
LOX IMVI melanoma = system: LOX IMVI melanoma
CCRF-CEM leukemia = system: CCRF-CEM leukemia
HCT-15 colon = system: HCT-15 colon
COLO 205 colon = system: COLO 205 colon
RXF 393 renal = system: RXF 393 renal
MDA-MB-231 breast = system: MDA-MB-231 breast
HOP-62 NSCLC = system: HOP-62 NSCLC
K-562 leukemia = system: K-562 leukemia
TK-10 renal = system: TK-10 renal
CAKI-1 renal = system: CAKI-1 renal

Compound: C=C1CCC2C(C)(CO)C(O)CCC2(C)C1C/C=C1\C(=O)OCC1O (stereo not drawn)
- TGI (U251 CNS): 23.1 µM
- TGI (HS 578T breast): > 100 µM
- TGI (786-0 renal): 18.1 µM
- TGI (HT29 colon): 25.8 µM
- TGI (OVCAR-4 ovarian): 23.5 µM
- TGI (SF-295 CNS): 52.5 µM
- TGI (IGROV1 ovarian): 57.4 µM
- TGI (EKVX NSCLC): 99.7 µM
- TGI (HCC-2998 colon): 50.6 µM
- TGI (MCF7 breast): 31.3 µM
- TGI (HOP-92 NSCLC): 66.1 µM
- TGI (MDA-MB-435): 22.9 µM
- TGI (HCT-116 colon): 28.9 µM
- TGI (SK-OV-3 ovarian): 66.7 µM
- TGI (NCI-H522 lung): 28.4 µM
- TGI (NCI-H226 lung): > 100 µM
- TGI (SR leukemia): 42.5 µM
- TGI (A549 NSCLC): 80.9 µM
- TGI (UACC-62 melanoma): 57.5 µM
- TGI (SK-MEL-28 melanoma): 27.3 µM
- TGI (RPMI-8226 leukemia): 49.9 µM
- TGI (OVCAR-3 ovarian): 21.2 µM
- TGI (SNB-75 CNS): 30.5 µM
- TGI (ACHN renal): > 100 µM
- TGI (SF-268 CNS): > 100 µM
- TGI (MALME-3M melanoma): 30.2 µM
- TGI (BT-549 breast): 20.3 µM
- TGI (MOLT-4 leukemia): > 100 µM
- TGI (SNB-19 CNS): > 100 µM
- TGI (SF-539 CNS): 44.3 µM
- TGI (DU-145 prostate): > 100 µM
- TGI (OVCAR-8 ovarian): 22.6 µM
- TGI (SN12C renal): 35.8 µM
- TGI (UO-31 renal): > 100 µM
- TGI (MDA-N): 55.1 µM
- TGI (T-47D breast): 74.7 µM
- TGI (NCI-H460 lung): 59.2 µM
- TGI (PC-3 prostate): 71.6 µM
- TGI (NCI-H23 lung): 49.8 µM
- TGI (HL-60(TB) leukemia): > 100 µM
- TGI (KM12 colon): 27.2 µM
- TGI (SK-MEL-2 melanoma): 30.8 µM
- TGI (A498 renal): 93.1 µM
- TGI (SK-MEL-5 melanoma): 27.8 µM
- TGI (SW-620 colon): 24 µM
- TGI (OVCAR-5 ovarian): 31.1 µM
- TGI (M14 melanoma): 53.7 µM
- TGI (NCI/ADR-RES ovarian): > 100 µM
- TGI (UACC-257 melanoma): 73.8 µM
- TGI (LOX IMVI melanoma): 30.4 µM
- TGI (CCRF-CEM leukemia): > 100 µM
- TGI (HCT-15 colon): 39.5 µM
- TGI (COLO 205 colon): 27.9 µM
- TGI (RXF 393 renal): 33.8 µM
- TGI (MDA-MB-231 breast): 58.9 µM
- TGI (HOP-62 NSCLC): 54.4 µM
- TGI (K-562 leukemia): > 100 µM
- TGI (TK-10 renal): > 100 µM

Compound: Clc1ccc(-c2nn3c(COc4ccc(OCc5nnc6sc(-c7ccc(Cl)cc7)nn56)c(Cl)c4)nnc3s2)cc1
- TGI (U251 CNS): 54.7 µM
- TGI (HS 578T breast): > 100 µM
- TGI (786-0 renal): 26.6 µM
- TGI (HT29 colon): 36.7 µM
- TGI (OVCAR-4 ovarian): > 100 µM
- TGI (SF-295 CNS): > 100 µM
- TGI (IGROV1 ovarian): 43.9 µM
- TGI (EKVX NSCLC): > 100 µM
- TGI (HCC-2998 colon): 44.9 µM
- TGI (MCF7 breast): > 100 µM
- TGI (HOP-92 NSCLC): 37.8 µM
- TGI (MDA-MB-435): > 100 µM
- TGI (HCT-116 colon): > 100 µM
- TGI (SK-OV-3 ovarian): > 100 µM
- TGI (NCI-H522 lung): 37.4 µM
- TGI (NCI-H226 lung): > 100 µM
- TGI (SR leukemia): 61.4 µM
- TGI (A549 NSCLC): 90.2 µM
- TGI (UACC-62 melanoma): > 100 µM
- TGI (SK-MEL-28 melanoma): > 100 µM
- TGI (RPMI-8226 leukemia): > 100 µM
- TGI (OVCAR-3 ovarian): > 100 µM
- TGI (SNB-75 CNS): 29.8 µM
- TGI (ACHN renal): > 100 µM
- TGI (SF-268 CNS): 35.6 µM
- TGI (MALME-3M melanoma): > 100 µM
- TGI (BT-549 breast): 52.7 µM
- TGI (MOLT-4 leukemia): > 100 µM
- TGI (SNB-19 CNS): 31.7 µM
- TGI (SF-539 CNS): > 100 µM
- TGI (DU-145 prostate): > 100 µM
- TGI (OVCAR-8 ovarian): 75 µM
- TGI (SN12C renal): > 100 µM
- TGI (UO-31 renal): 42.1 µM
- TGI (MDA-N): 67.2 µM
- TGI (T-47D breast): > 100 µM
- TGI (NCI-H460 lung): > 100 µM
- TGI (PC-3 prostate): > 100 µM
- TGI (NCI-H23 lung): 62.3 µM
- TGI (HL-60(TB) leukemia): 36 µM
- TGI (KM12 colon): > 100 µM
- TGI (SK-MEL-2 melanoma): > 100 µM
- TGI (A498 renal): 71.1 µM
- TGI (SK-MEL-5 melanoma): 80.2 µM
- TGI (SW-620 colon): 74.1 µM
- TGI (OVCAR-5 ovarian): 71.7 µM
- TGI (M14 melanoma): > 100 µM
- TGI (NCI/ADR-RES ovarian): > 100 µM
- TGI (UACC-257 melanoma): > 100 µM
- TGI (LOX IMVI melanoma): 35.6 µM
- TGI (HCT-15 colon): > 100 µM
- TGI (COLO 205 colon): > 100 µM
- TGI (RXF 393 renal): 44.1 µM
- TGI (CAKI-1 renal): 75.1 µM
- TGI (MDA-MB-231 breast): > 100 µM
- TGI (HOP-62 NSCLC): 77.7 µM
- TGI (K-562 leukemia): > 100 µM
- TGI (TK-10 renal): 45.7 µM

Compound: CSc1ccc2c(c1)N(CCCN(C)C)c1ccccc1S2
- TGI (U251 CNS): 27.1 µM
- TGI (HS 578T breast): 28.7 µM
- TGI (786-0 renal): 28.5 µM
- TGI (HT29 colon): 21.1 µM
- TGI (OVCAR-4 ovarian): 24.5 µM
- TGI (SF-295 CNS): 26.8 µM
- TGI (IGROV1 ovarian): 28 µM
- TGI (EKVX NSCLC): 35.1 µM
- TGI (MCF7 breast): 26.1 µM
- TGI (HOP-92 NSCLC): 26.8 µM
- TGI (MDA-MB-435): 17 µM
- TGI (HCT-116 colon): 26.9 µM
- TGI (SK-OV-3 ovarian): 29.4 µM
- TGI (NCI-H522 lung): 26.6 µM
- TGI (NCI-H226 lung): 43.2 µM
- TGI (SR leukemia): 19.2 µM
- TGI (A549 NSCLC): 30.2 µM
- TGI (UACC-62 melanoma): 22.4 µM
- TGI (SK-MEL-28 melanoma): 6.7 µM
- TGI (RPMI-8226 leukemia): 28.5 µM
- TGI (OVCAR-3 ovarian): 27.2 µM
- TGI (SNB-75 CNS): 20.8 µM
- TGI (ACHN renal): 24.1 µM
- TGI (SF-268 CNS): 27.2 µM
- TGI (MALME-3M melanoma): 22 µM
- TGI (BT-549 breast): 29.2 µM
- TGI (MOLT-4 leukemia): 20 µM
- TGI (SNB-19 CNS): 30.6 µM
- TGI (SF-539 CNS): 44.9 µM
- TGI (DU-145 prostate): 30.1 µM
- TGI (OVCAR-8 ovarian): 36.1 µM
- TGI (SN12C renal): 28.5 µM
- TGI (MDA-N): 23.9 µM
- TGI (T-47D breast): 25.9 µM
- TGI (NCI-H460 lung): 26.5 µM
- TGI (PC-3 prostate): 23.8 µM
- TGI (NCI-H23 lung): 31.5 µM
- TGI (HL-60(TB) leukemia): 31.3 µM
- TGI (KM12 colon): 24.9 µM
- TGI (SK-MEL-2 melanoma): 29.5 µM
- TGI (A498 renal): 24.6 µM
- TGI (SK-MEL-5 melanoma): 25.4 µM
- TGI (SW-620 colon): 41.8 µM
- TGI (OVCAR-5 ovarian): 30.9 µM
- TGI (M14 melanoma): 17.8 µM
- TGI (NCI/ADR-RES ovarian): 26.2 µM
- TGI (UACC-257 melanoma): 19.9 µM
- TGI (LOX IMVI melanoma): 32.4 µM
- TGI (CCRF-CEM leukemia): 23.4 µM
- TGI (HCT-15 colon): 30.4 µM
- TGI (COLO 205 colon): 31.7 µM
- TGI (RXF 393 renal): 22.5 µM
- TGI (CAKI-1 renal): 21.2 µM
- TGI (MDA-MB-231 breast): 26.3 µM
- TGI (HOP-62 NSCLC): 28.4 µM
- TGI (K-562 leukemia): 17 µM
- TGI (TK-10 renal): 28.3 µM

From PubChem BioAssay (NCI)
